Experimental data: patent US20240415921A1, “METHODS OF TREATING CANCER BY TARGETING TUMOR-ASSOCIATED MACROPHAGES” (ENDOCYTE, INC., priority 2014, published 2024)

Test system: 4T1 TAMs
Assay: Activity against 4T1 TAMs in-vivo (FACS of harvested tumors)
Parameters: species or system nude rats
Details: single i.v. dose (Example 1 100 nmol/kg; EC0923 alone 50 μmol/kg), tumors harvested four days later
Description: EXAMPLE 4. Example 1 activity against 4T1 TAMs in-vivo. As a proof-of-concept study, female Foxn1^nu nude rats (Harlan, Inc., Indianapolis, IN) on a folate-deficient diet are subcutaneously implanted with 1×10^6 4T1 tumor cells in the left and right mammary regions (2 tumors per animal). When the tumors reach about 900-1000 mm^3, the animals are intravenously dosed with (i) PBS (n=1), (ii) 100 nmol/kg of the folic acid-releasable linker-drug conjugate, such as Example1 (n=1), (iii) 100 nmol/kg of Example1 plus 50 μmol/kg of EC0923 (n=1), or (iv) 50 μmol/kg of EC0923 (n=1). Four days later, the tumors are harvested, enzymatically digested, and subjected to FACS analysis. The tumor cell suspensions are stained for macrophage markers (CD163 and/or CD11b), cell viability (propidium iodide), and late and early apoptosis (Annexin V).
EXAMPLE 13. Preparation of 4T1 xenograft tumors from nude rats and MDA-MB-231 tumors isolated from nude mice and A549 tumors isolated from nude mice. Each tumor is minced and placed into 20 mL of RPMI1640 (serum free) containing 0.5 mg/mL Collagenase IV, 0.05 mg/mL hyaluronidase, and 0.1 mg/mL DNaseI and placed in a shaker at 200 rpm for 1 hr at 37° C. […]

Nc1nc2ncc(CNc3ccc(C(=O)N[C@@H](CCC(=O)N[C@H](CC(=O)O)C(=O)N[C@H](CC(=O)O)C(=O)O)C(=O)O)cc3)nc2c(=O)[nH]1 [EC0923, pteroyl-[…]Glu-D-Asp-D-Asp]
viable CD163(+) CD11b(+) TAM population in 4T1 tumors: does not have any effect
